Experimental data from patent publication US20090062253A1, “HETEROCYCLODIAZEPINE CANNABINOID RECEPTOR MODULATORS FOR TREATMENT OF DISEASE” (KALYPSYS, INC., priority 2007, published 2009).

Columns and labels:
Human CB2 = biological target: T1, Human CB2 (Homo sapiens, UniProt P34972); assay: Human CB2 Radioligand Binding Assay; details: membranes from stably transfected CHO CB2 cells; competition with [3H] CP-55,940; read-out: CB2 Ligand Binding Asssay
T1 construct: expressed in transfected cells; membrane preparation
T1 sequence (P34972 whole entry): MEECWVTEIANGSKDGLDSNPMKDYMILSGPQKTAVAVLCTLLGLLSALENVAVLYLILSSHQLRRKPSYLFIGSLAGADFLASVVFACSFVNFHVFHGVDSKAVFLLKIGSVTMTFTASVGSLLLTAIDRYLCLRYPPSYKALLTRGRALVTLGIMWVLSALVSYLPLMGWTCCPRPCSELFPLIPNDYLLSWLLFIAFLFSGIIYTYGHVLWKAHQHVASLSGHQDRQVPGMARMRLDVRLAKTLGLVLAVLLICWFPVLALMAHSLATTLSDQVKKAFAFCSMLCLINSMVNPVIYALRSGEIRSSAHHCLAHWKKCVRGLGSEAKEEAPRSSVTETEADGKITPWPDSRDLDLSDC
Procedure: (§1) This receptor binding filtration assay measures the receptor-ligand interactions of compounds by measuring ability to compete with a radiolabeled control ligand. Reactions were performed in 96 deep-well plate (Costar 3961) with a final volume of 600 ul. Compounds were added to each well either in single point (10 uM final) or dose-response. Compounds were delivered in DMSO or further diluted in incubation buffer to a final assay DMSO concentration of 1%. Incubation buffer (50 mM Tris-HCl pH 7.4, 2.5 mM EGTA, 5 mM MgCl2, 5.0 mg/ml fatty acid free BSA) was added to each well. Following buffer addition, [^3H] CP-55,940 was added. Tritiated CP-55,940 (Perkin Elmer) was used at the Kd determined from prior saturation binding experiments conducted on each lot of membranes. Membrane preparations from stably transfected CHO CB2 cells were added and the reaction was incubated for 90 minutes at 30° C. Unifilter GF/C filtration plates (Perkin Elmer) were pre-wet with 0.05% polyethylenimine. Samples were transferred to Unifilter plates and separation of unbound radioligand was achieved using a vacuum manifold (Millipore). Following thorough washing with 5 ml/well ice-cold wash buffer (50 mM Tris-HCl pH 7.4, 2.5 mM EGTA, 5 mM MgCl2, 0.5 mg/ml fatty acid free BSA), filterplates were dried completely. Betaplate Scint Scintillation cocktail (25 ul, Perkin Elmer) was applied and plates were read using Microbeta Trilux (Wallac). Data analysis was performed in Spotfire. Activity of the positive control (100 nM CP-55,940) was set as 100% efficacy.
Stable recombinant Human CB2-CHO cell membranes were prepared as follows: Chinese Hamster Ovarian (CHO) cells stably expressing human cannabinoid receptor type 2 were grown to ˜90% confluence in 15×100 mm culture dishes under puromycin selection (5 ug/ml) Cells were harvested from culture flasks using a cell scraper, were washed once with cold phosphate-buffered saline (calcium and magnesium free) and pelleted by centrifugation at 400 g for 5 min at 4° C. Cell pellet was washed once with cold phosphate-buffered saline and centrifuged again at 400×g for 5 min at 4° C. The pellet was suspended in ice-cold lysis buffer (10 mM Tris-HCl, 0.1 mM EDTA, containing […], pH 7.5) and homogenized in a chilled 7 ml glass dounce homogenizer using 50 strokes. The homogenate was centrifuged at 400 g for 15 min at 4° C. The cloudy supernatant was collected and centrifuged at 41000 g for 30 min at 4° C. The resulting pellet was washed with ice-cold sucrose-free lysis buffer and centrifuged again at 41000 g for 30 min at 4° C. The membrane pellet was suspended in sucrose-free storage buffer (10 mm Tris-HCl, 0.1 mM EDTA, pH 7.5) to a concentration of 2-3 mg protein/ml. Aliquots were flash frozen in liquid nitrogen and stored at −80° C. Concentration was determined using Dc protein assay kit (Bio-Rad).

[1] = biological target: T2, human cannabinoid receptor type 1 (Homo sapiens, UniProt P21554); assay: Human CB1 Radioligand Binding Assay (basis of selectivity CB2 vs. CB1)
T2 construct: purchased Perkin Elmer RBHCB1M; host or cells: HEK 293 EBNA cells
T2 sequence (P21554 whole entry): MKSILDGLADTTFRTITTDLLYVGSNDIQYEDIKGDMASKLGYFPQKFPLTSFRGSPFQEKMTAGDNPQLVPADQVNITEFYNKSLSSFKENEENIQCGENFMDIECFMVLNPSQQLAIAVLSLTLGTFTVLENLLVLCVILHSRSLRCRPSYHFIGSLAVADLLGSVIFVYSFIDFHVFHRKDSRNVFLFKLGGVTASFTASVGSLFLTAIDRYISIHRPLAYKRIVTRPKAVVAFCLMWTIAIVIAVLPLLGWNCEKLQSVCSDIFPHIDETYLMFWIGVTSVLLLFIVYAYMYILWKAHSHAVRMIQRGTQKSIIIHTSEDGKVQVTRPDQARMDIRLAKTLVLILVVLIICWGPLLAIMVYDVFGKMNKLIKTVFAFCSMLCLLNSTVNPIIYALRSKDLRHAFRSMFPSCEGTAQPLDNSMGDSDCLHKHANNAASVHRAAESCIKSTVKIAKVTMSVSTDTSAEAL
Procedure: as §1
The CB1 binding assay was performed as described above except that HEK 293 EBNA cells expressing human cannabinoid receptor type 1 (Perkin Elmer cat #RBHCB1M) were used according the manufacturer's instructions. The incubation buffer was composed of 50 mM Tris-HCl pH 7.4, 2.5 mM EDTA, 5 mM MgCl2, 5.0 mg/ml fatty acid free BSA and the wash buffer was composed of 50 mM Tris-HCl pH 7.4, 2.5 mM EDTA, 5 mM MgCl2, 0.5 mg/ml fatty acid free BSA. Activity of the positive control (100 nM CP-55,940) was set as 100% efficacy.

| Compound | IC50 (radioligand displacement) (Human CB2) [nM] | Selectivity, CB2 vs. CB1 [1] |
| --- | --- | --- |
| CC(C)(C)c1ccc(C2c3cccn3CCCN2C(=O)CN2CCOCC2)cc1 (centres unmarked) [Example 52, 1-(1-(4-tert-Butylphenyl)-4,5-dihydro-1H-pyrrolo[1,2-a][1,4]diazepin-2(3H)-yl)-2-morpholinoethanone] | > 1000 | − (− indicates < 10-fold) |
| CC(C)(C)c1ccc(C2c3cccn3CCC2C(=O)Nc2ccc(OC(F)(F)F)cc2)cc1 (centres unmarked) [Example 97, 8-(4-tert-Butylphenyl)-N-(4-(trifluoromethoxy)phenyl)-5,6,7,8-tetrahydroindolizine-7-carboxamide] | > 1000 | − (− indicates < 10-fold) |
| CC(C)(C)c1ccc(C2c3cccnc3CCCN2C(=O)Nc2ccc(F)cc2F)cc1 (centres unmarked) [Example 134, 5-(4-tert-Butylphenyl)-N-(2,4-difluorophenyl)-8,9-dihydro-5H-pyrido[3,2-c]azepine-6(7H)-carboxamide] | < 1000 | + (+ indicates > 10-fold) |
| CC(C)(C)c1ccc(C2c3cccn3CCCC2C(=O)Nc2ccc(Cl)cc2)cc1 (centres unmarked) [Example 92, 9-(4-tert-Butylphenyl)-N-(4-chlorophenyl)-6,7,8,9-tetrahydro-5H-pyrrolo[1,2-a]azepine-8-carboxamide] | < 1000 | + (+ indicates > 10-fold) |
| CC(C)(C)c1ccc(C2=C(NC(=O)Nc3ccc(Cl)c(Cl)c3)CCCn3cccc32)cc1 [Example 87, (E)-1-(9-(4-tert-Butylphenyl)-6,7-dihydro-5H-pyrrolo[1,2-a]azepin-8-yl)-3-(3,4-dichlorophenyl)urea] | > 1000 | + (+ indicates > 10-fold) |
| CC(C)(C)c1ccc(C2=C(NC(=O)Nc3ccc(C(F)(F)F)cc3)CCCn3cccc32)cc1 [Example 88, (E)-1-(9-(4-tert-Butylphenyl)-6,7-dihydro-5H-pyrrolo[1,2-a]azepin-8-yl)-3-(4-(trifluoromethyl)phenyl)urea] | < 1000 | + (+ indicates > 10-fold) |
| CC(C)(C)c1ccc(C2c3cccn3CCCN2C(=O)Cc2ccc(F)cc2)cc1 (centres unmarked) [Example 50, 1-(1-(4-tert-Butylphenyl)-4,5-dihydro-1H-pyrrolo[1,2-a][1,4]diazepin-2(3H)-yl)-2-(4-fluorophenyl)ethanone] | < 1000 | − (− indicates < 10-fold) |
| O=C(Nc1ccc(F)c(F)c1)C1=C(c2ccccc2)c2cccn2CCC1 [Example 75, (E)-N-(3,4-Difluorophenyl)-9-phenyl-6,7-dihydro-5H-pyrrolo[1,2-a]azepine-8-carboxamide] | < 1000 | − (− indicates < 10-fold) |
| CC(C)(C)c1ccc(C2c3cccn3CCCC2NC(=O)Nc2ccc(C(F)(F)F)cc2)cc1 (mixture of isomers) [Example 122, 1-(9-(4-tert-Butylphenyl)-6,7,8,9-tetrahydro-5H-pyrrolo[1,2-a]azepin-8-yl)-3-(4-(trifluoromethyl)phenyl)urea] | < 1000 | + (+ indicates > 10-fold) |
| CC(C)(C)c1ccc(C2c3cccnc3OCCN2C(=O)Nc2ccc(F)cc2F)cc1 (centres unmarked) [Example 138, 5-(4-tert-Butylphenyl)-N-(2,4-difluorophenyl)-2,3-dihydropyrido[3,2-f][1,4]oxazepine-4(5H)-carboxamide] | > 1000 | − (− indicates < 10-fold) |
| CC(C)(C)C1CCC(C2c3cccn3CCCN2C(=O)Nc2ccc(F)c(F)c2)CC1 (centres unmarked) [Example 33, 1-(4-tert-Butylcyclohexyl)-N-(3,4-difluorophenyl)-4,5-dihydro-1H-pyrrolo[1,2-a][1,4]diazepine-2(3H)-carboxamide] | < 1000 | − (− indicates < 10-fold) |
| COc1ccc(COC(=O)NC2=C(c3ccc(C(C)(C)C)cc3)c3cccn3CCC2)cc1 [Example 89, (E)-4-Methoxybenzyl 9-(4-tert-butylphenyl)-6,7-dihydro-5H-pyrrolo[1,2-a]azepin-8-ylcarbamate] | > 1000 | − (− indicates < 10-fold) |

Next, values leading:

| IC50 (radioligand displacement) (Human CB2) [nM] | Selectivity, CB2 vs. CB1 [1] | Compound |
| --- | --- | --- |
| < 1000 | + (+ indicates > 10-fold) | CC(C)(C)c1ccc(C2=C(C(=O)Nc3ccc(Cl)cc3)CCCn3cccc32)cc1 [Example 66, (E)-9-(4-tert-Butylphenyl)-N-(4-chlorophenyl)-6,7-dihydro-5H-pyrrolo[1,2-a]azepine-8-carboxamide] |
| < 1000 | + (+ indicates > 10-fold) | CC(C)(C)c1ccc(C2c3cccn3CCC2C(=O)Nc2ccc(F)c(F)c2)cc1 (mixture of isomers) [Example 95, 8-(4-tert-Butylphenyl)-N-(3,4-difluorophenyl)-5,6,7,8-tetrahydroindolizine-7-carboxamide] |
| < 1000 | + (+ indicates > 10-fold) | CC(C)(C)c1ccc(C2c3cncn3CCCN2C(=O)Nc2ccc(Cl)cc2Cl)cc1 (centres unmarked) [Example 31, 9-(4-tert-Butylphenyl)-N-(2,4-dichlorophenyl)-6,7-dihydro-5H-imidazo[1,5-a][1,4]diazepine-8(9H)-carboxamide] |
| < 1000 | − (− indicates < 10-fold) | CC(C)(C)C1CCC(C2c3cccn3CCCN2C(=O)Nc2ccc(Cl)cc2Cl)CC1 (centres unmarked) [Example 35, 1-(4-tert-Butylcyclohexyl)-N-(2,4-dichlorophenyl)-4,5-dihydro-1H-pyrrolo[1,2-a][1,4]diazepine-2(3H)-carboxamide] |
| < 1000 | + (+ indicates > 10-fold) | CC(C)(C)c1ccc(C2[C@@H]3CCCN3CCCN2C(=O)Nc2ccc(F)cc2F)cc1 (stereo partly drawn) [Example 129, (9aS)-1-(4-tert-Butylphenyl)-N-(2,4-difluorophenyl)hexahydro-1H-pyrrolo[1,2-a][1,4]diazepine-2(3H)-carboxamide] |
| > 1000 | − (− indicates < 10-fold) | O=C(Nc1ccc(F)c(F)c1)C1CCn2cccc2C1c1ccccc1 (mixture of isomers) [Example 101, N-(3,4-Difluorophenyl)-8-phenyl-5,6,7,8-tetrahydroindolizine-7-carboxamide] |
| > 1000 | − (− indicates < 10-fold) | Cc1cccc(C2c3cccn3CCCN2C(=O)Nc2ccc(F)cc2F)c1 (centres unmarked) [Example 10, N-(2,4-Difluorophenyl)-1-m-tolyl-4,5-dihydro-1H-pyrrolo[1,2-a][1,4]diazepine-2(3H)-carboxamide] |
| < 1000 | − (− indicates < 10-fold) | CC(C)(C)c1ccc(CC2c3cccn3CCCN2C(=O)Nc2ccc(Cl)cc2Cl)cc1 (centres unmarked) [Example 24, 1-(4-tert-Butylbenzyl)-N-(2,4-dichlorophenyl)-4,5-dihydro-1H-pyrrolo[1,2-a][1,4]diazepine-2(3H)-carboxamide] |
| < 1000 | − (− indicates < 10-fold) | CC(C)(C)c1ccc(C2=C(C(=O)Nc3ccc(Cl)c(Cl)c3)CCCn3cncc32)cc1 [Example 79, (E)-9-(4-tert-Butylphenyl)-N-(3,4-dichlorophenyl)-6,7-dihydro-5H-imidazo[1,5-a]azepine-8-carboxamide] |
| < 1000 | − (− indicates < 10-fold) | CC(C)(C)c1ccc(C2=C(C(=O)Nc3ccc(C(F)(F)F)cc3)CCCn3cccc32)cc1 [Example 64, (E)-9-(4-tert-Butylphenyl)-N-(4-(trifluoromethyl)phenyl)-6,7-dihydro-5H-pyrrolo[1,2-a]azepine-8-carboxamide] |
